Assay results published in US7449545B2, “Antimicrobial bolisin peptides” (IPF Pharmaceuticals GmbH, priority 2001, dated 2008).
Where two headings read alike, the source gives them in different places. Ends that are not written are not given here.

How the values were obtained:
Format in all cases: cell-based
[1] = test system: Klebsiella pneumoniae ATCC 10031; conditions: ATCC 10031, 2 h
Description: (§1) The bolisin analogues of the present invention were examined for their suitability as antibiotic therapeutical agents by means of various biological tests. Thus, the chemically synthesized peptides were examined for their antimicrobial effectiveness against three Gram-positive and three Gram-negative bacterial strains as well as against a yeast.
(§2) The following microorganisms were used: • Gram-positive: Staphylococcus aureus ATCC 25923 • Enterococcus faecalis ATCC 51299 (vancomycin-resistant) • Streptococcus pneumoniae DSM 11865 (penicillin-resistant) • Gram-negative: Escherichia coli ATCC 25922 • Pseudomonas aeruginosa ATCC 9027 • Klebsiella pneumoniae ATCC 10031 • Yeast: Candida albicans ATCC 10231
(§3) The antibiotic activity of bolisin analogues was examined by determining the minimum inhibition concentration. […] This method allows to obtain a quantitative result about the antimicrobial potency of the peptides. These examinations were performed by analogy with the recommendations (M7-A3) edited by the NCCLS (National Committee for Clinical Laboratory Standards) by applying a dilution test in a liquid medium using chemically synthesized peptides (peptide sequences according to claims 1 to 3). Mueller Hinton Broth was used as the test medium according to the NCCLS recommendations unless indicated otherwise. […] The minimum inhibition concentrations are stated in [μg/ml].
(§4) A complete growth inhibition could not be achieved in this case. For determining the minimum inhibition concentration, the following microorganisms were used: • 1. Staphylococcus aureus ATCC 25923 • 2. Enterococcus faecalis ATCC 51299 (vancomycin-resistant) • 3. Streptococcus pneumoniae DSM 11865 (penicillin-resistant) • 4. Escherichia coli ATCC 25922 • 5. Pseudomonas aeruginosa ATCC 9027 • 6. Klebsiella pneumoniae ATCC 10031 • 7. Candida albicans ATCC 10231

[2] = test system: Enterococcus faecalis ATCC 51299 (vancomycin-resistant); conditions: ATCC 51299, 2 h
Description: as §1, §2, §3, §4

[3] = test system: Candida albicans ATCC 10231; conditions: for minimum inhibition concentration: ATCC 10231, 2 h
Description: as §1, §2, §3, §4

[4] = test system: Streptococcus pneumoniae DSM 11865 (penicillin-resistant); conditions: DSM 11865, 2 h
Description: as §1, §2, §3, §4

[5] = test system: Staphylococcus aureus ATCC 25923; conditions: ATCC 25923, 2 h
Description: as §1, §2, §3, §4

[6] = test system: Escherichia coli ATCC 25922; conditions: ATCC 25922, 2 h
Description: as §1, §2, §3, §4

[7] = test system: Pseudomonas aeruginosa ATCC 9027; conditions: complete growth inhibition not achieved
Description: as §1, §2
The antibiotic activity of bolisin analogues was examined by determining the minimum inhibition concentration. The minimum inhibition concentration of an analogue designates the lowest peptide concentration which is required to inhibit the growth of microorganisms completely after an incubation time of 18±2 h. This method allows to obtain a quantitative result about the antimicrobial potency of the peptides. These examinations were performed by analogy with the recommendations (M7-A3) edited by the NCCLS (National Committee for Clinical Laboratory Standards) by applying a dilution test in a liquid medium using chemically synthesized peptides (peptide sequences according to claims 1 to 3). Mueller Hinton Broth was used as the test medium according to the NCCLS recommendations unless indicated otherwise. […] The minimum inhibition concentrations are stated in [μg/ml].
as §4

[8] = half-concentrated Mueller Hinton Broth

Substance | minimum inhibition concentration [1] | minimum inhibition concentration [2] | minimum inhibition concentration [3] | minimum inhibition concentration [4] | minimum inhibition concentration [5] | minimum inhibition concentration [6] | peptide concentration giving 75% inhibition of growth (value in parentheses) ([7]; Mueller Hinton Broth) | peptide concentration giving 75% inhibition of growth (value in parentheses) [7, 8] | peptide concentration giving 75% inhibition of growth (value in parentheses) ([3]; Mueller Hinton Broth, complete growth inhibition not achieved)
YIVYKIRWARKRSKALK-OH [BOL-49, YIVYKIRWARKRSKALK] | 18.75 µg/mL | 25 µg/mL | 18.75 µg/mL | 18.75 µg/mL | 75 µg/mL | 50 µg/mL | (12.5) μg/ml |  | 
KYIVYKIRSAWKRSKALK-OH [BOL-85, KYIVYKIRSAWKRSKALK] | 150 µg/mL | 300 µg/mL | 75 µg/mL | 300 µg/mL | >300 µg/mL | >300 µg/mL | (37.5) μg/ml |  | 
YIVWKIRSAWKRWKALK-OH [BOL-82, YIVWKIRSAWKRWKALK] | 12.5 µg/mL | 75 µg/mL | 9.375 µg/mL | 37.5 µg/mL | 18.75 µg/mL | 18.75 µg/mL | (9.375) μg/ml |  | 
YIVYKIRSARKRRKALK-OH [BOL-13, YIVYKIRSARKRRKALK] | 18.75 µg/mL | 75 µg/mL |  | 150 µg/mL | 18.75 µg/mL | 18.75 µg/mL |  | (9.375) μg/ml | 
YIVYKIRWAKKRKKALK-OH [BOL-59, YIVYKIRWAKKRKKALK] | 18.75 µg/mL | 50 µg/mL |  | 50 µg/mL | 50 µg/mL | 150 µg/mL | (18.75) μg/ml |  | (9.375) μg/ml
YIVYKIRSAPKRSKALK-OH [BOL-21, YIVYKIRSAPKRSKALK] | 200 µg/mL | >300 µg/mL |  | >300 µg/mL | 75 µg/mL | 150 µg/mL |  | (150) μg/ml | 
YIVYKIRWADKRSKALK-OH [BOL-27, YIVYKIRWADKRSKALK] | 150 µg/mL | 300 µg/mL |  | 300 µg/mL | 75 µg/mL | 75 µg/mL |  | (150) μg/ml | 
YIVYKIRSADKRRKALK-OH [BOL-7, YIVYKIRSADKRRKALK] | 300 µg/mL | >300 µg/mL |  | >300 µg/mL | 75 µg/mL | 150 µg/mL |  | (75) μg/ml | 
YIVYKIRSAWKRSKALK-OH [BOL-29, YIVYKIRSAWKRSKALK] | 50 µg/mL | 75 µg/mL |  | 150 µg/mL | 9.375 µg/mL | 9.375 µg/mL |  | (18.75) μg/ml | 
YIRYKIRSARKRRKALK-OH [BOL-14, YIRYKIRSARKRRKALK] | 75 µg/mL | >300 µg/mL |  | >300 µg/mL | 50 µg/mL | 37.5 µg/mL |  | (150) μg/ml | 
YIRYKRRSADKRRKALK-OH [BOL-16, YIRYKRRSADKRRKALK] | 150 µg/mL | >300 µg/mL |  | >300 µg/mL | 100 µg/mL | 75 µg/mL |  | (300) μg/ml | 
YIVYKIRWAWKRSKAL [BOL-93, YIVYKIRWAWKRSKAL] | 25 µg/mL | 37.5 µg/mL |  | 25 µg/mL | 25 µg/mL | 25 µg/mL | (37.5) μg/ml |  | 
YIVYKRRSARKRSKALK-OH [BOL-11, YIVYKRRSARKRSKALK] | 150 µg/mL | >300 µg/mL |  | >300 µg/mL | 37.5 µg/mL | 37.5 µg/mL |  | (150) μg/ml | 
YIVYKIRFAFKRRKAL [BOL-92, YIVYKIRFAFKRRKAL] | 12.5 µg/mL | 18.75 µg/mL |  | 25 µg/mL | 18.75 µg/mL | 18.75 µg/mL | (37.5) μg/ml |  | 
YIVYKRRSARKRRKALK-OH [BOL-15, YIVYKRRSARKRRKALK] | 75 µg/mL | >300 µg/mL |  | >300 µg/mL | 18.75 µg/mL | 18.75 µg/mL |  | (150) μg/ml | 
YIVYKIRSADKRWKALK-OH [BOL-30, YIVYKIRSADKRWKALK] | 300 µg/mL | >300 µg/mL |  | >300 µg/mL | 100 µg/mL | 150 µg/mL |  | (300) μg/ml | 
YIVYKIRWTWKRSKAL [BOL-97, YIVYKIRWTWKRSKAL] | 18.75 µg/mL | 18.75 µg/mL |  | 18.75 µg/mL | 12.5 µg/mL | 18.75 µg/mL | (37.5) μg/ml |  | 
YIVWKIRSADKRSKALK-OH [BOL-25, YIVWKIRSADKRSKALK] | 200 µg/mL | >300 µg/mL |  | >300 µg/mL | 150 µg/mL | 150 µg/mL |  | (150) μg/ml | 
YIVYKIRSARKRSKALK-OH [BOL-6, YIVYKIRSARKRSKALK] | 37.5 µg/mL | 200 µg/mL |  | 150 µg/mL | 37.5 µg/mL | 37.5 µg/mL |  | (9.375) μg/ml | 
YIVYKRRSADKRRKALK-OH [BOL-12, YIVYKRRSADKRRKALK] | 200 µg/mL | >300 µg/mL |  | >300 µg/mL | 18.75 µg/mL | 18.75 µg/mL |  | (300) μg/ml | 
YIVYKIRFAFKRSKAL [BOL-91, YIVYKIRFAFKRSKAL] | 18.75 µg/mL | 37.5 µg/mL |  | 37.5 µg/mL | 25 µg/mL | 25 µg/mL | (150) μg/ml |  | 
KLAKRRKWAWRIKYVIY [BOL-103, KLAKRRKWAWRIKYVIY] | 18.75 µg/mL | 37.5 µg/mL |  | 37.5 µg/mL | 18.75 µg/mL | 18.75 µg/mL | (9.4) μg/ml |  | 
